Literature values in PMC5344293, “A phase 1 dose-escalation and expansion study of binimetinib (MEK162), a potent and selective oral MEK1/2 inhibitor” (British Journal of Cancer, 2017).
Where two headings read alike, the source gives them in different places.

Assays:
non-melanoma tumours [1] = test system: non-melanoma tumours; parameters: method as in Rosen et al, 2011; conditions: ref Rosen et al, 2011; cited from earlier work
[2] = test system: metastatic biliary cancer; parameters: method as in Bekaii-Saab et al, 2011; conditions: ref Bekaii-Saab et al, 2011; cited from earlier work
non-melanoma tumours [3] = test system: non-melanoma tumours; parameters: method as in Adjei et al, 2008; conditions: ref Adjei et al, 2008; cited from earlier work
advanced solid tumours = test system: advanced solid tumours; parameters: method as in Infante et al, 2012; conditions: ref Infante et al, 2012, cited from earlier work
non-melanoma tumours [4] = test system: non-melanoma tumours; parameters: method as in Delord et al, 2010; conditions: ref Delord et al, 2010; cited from earlier work

In the case of `O=C(c1ccc(F)c(F)c1Nc1ccc(I)cc1F)N1CC(O)([C@@H]2CCCCN2)C1` [cobimetinib], the “Objective responses to single-agent treatment in non-melanoma patients” value (shortened to “Objective responses … in non-melanoma patients”) (non-melanoma tumours [1]) is listed as “no objective responses”.
For `Cn1cnc2c(F)c(Nc3ccc(Br)cc3Cl)c(C(=O)NOCCO)cc21` [selumetinib], the “Objective response, patients” value [2] is given as 12% and the “Objective responses … in non-melanoma patients” value (non-melanoma tumours [3]) is given as “no objective responses”.
In the case of `CC(=O)Nc1cccc(-n2c(=O)n(C3CC3)c(=O)c3c(Nc4ccc(I)cc4F)n(C)c(=O)c(C)c32)c1` [trametinib], the “Non-melanoma patients with objective responses” value (advanced solid tumours; NSCLC and pancreas cancer (2 patients each)) is listed as 4 patients and the “Patients with objective responses” value (advanced solid tumours; all tumour types) is listed as 21 patients.
For `O=C(NC[C@H](O)CO)c1ccncc1Nc1ccc(I)cc1F` [pimasertib], the “Objective responses … in non-melanoma patients” value (non-melanoma tumours [4]) is given as “no objective responses”.
